Source: US20250049831A1, “ANTIVIRAL USE OF BISE[…], AND BISEPOXYLIGNAN COMPOSITION AND PREPARATION OF BISE[…]” (priority 2021, published 2025)
Like-named read-outs stand apart in the source and are kept apart here.

What was measured:
IL-2 = assay: Serum IL-2 in mice infected with influenza virus; format: in vivo, ICR mice; conditions: Day 5 after influenza virus infection, gavage once a day, x ± s
Experimental: (§1) On the Day 5 after influenza virus infection, that is, Day 6 after administration, after the mice were fasted with solids for 8 h and weighed, venous blood was collected from the plexus ophthalmicus, and blood from mice in each group was preserved, subjected to serum separation, and stored in a refrigerator for later use. According to the instructions of a test kit, various detection and analysis were carried out, and IL-2 and TNF-α concentrations were calculated based on the standard detection and standard curve plotting.

influenza virus [1] = format: in vivo, Kunming mice; conditions: for Hemagglutination titer inhibition rate (%): Day 5; for Hemagglutination titer: lung suspension
parainfluenza virus [2] = assay: Effect of drug on virus-induced CPE (MTT, antiviral effective rate), parainfluenza virus in Vero cells; format: cell-based
influenza virus [3] = assay: Effect of drug on virus-induced CPE (MTT, antiviral effective rate), influenza virus in Vero cells; format: cell-based
Vero cells = assay: Drug cytotoxicity assay (MTT) on Vero cells; format: cell-based, African green monkey; conditions: 72 h, Probit regression
Excerpt: Vero cells were subcultured for 1-2 d to make them into flakes, and trypsinized in the presence of clear boundaries, strong three-dimensional sense and strong refractive power, until needle-like holes appeared on the cell surfaces; after the trypsinization solution was absorbed completely, a few milliliters of culture medium were taken to blow away the cells; the cells were counted, diluted to about 5×10^7/L with a culture medium (DMEM containing 10% fetal bovine serum), and then inoculated in a 96-well culture plate; and the cells grew into a monolayer.
Cytotoxicity test: the drugs were diluted at the concentrations shown in Table 3-1 for cytotoxicity assay.

TNF-α = assay: Serum TNF-α in mice infected with influenza virus; format: in vivo, ICR mice; conditions: Day 5 after influenza virus infection, gavage once a day, x ± s
Experimental: as §1

parainfluenza virus [4] = format: in vivo, Kunming mice; conditions: for Hemagglutination titer inhibition rate (%): Day 5; for Hemagglutination titer: lung suspension, Day 5, […]
COVID-19 Delta virus [5] = assay: Prophylactic administration, virus titer in lung tissues of mice infected with COVID-19 Delta virus; conditions: prophylactic gavage 5 days before infection, Day 5 after infection, TCID50 on VERO E6 cells
IL-1β = assay: RT-qPCR of IL-1β in lung homogenate of mice infected with COVID-19 Delta virus; conditions: mRNA RT-qPCR, NC = 1.00
COVID-19 Delta virus [6] = assay: Prophylactic administration, death protection of mice infected with COVID-19 Delta virus; conditions: for Death rate / Survival rate / Mean survival: within 5 days of Delta infection, n = 8; for Mean survival: x ± s
Experimental: hACE2 transgenic C57BL/6 mice were divided (8 mice in each group) into a normal group (NC), a virus infection group (Virus), and drug groups (a COVID-19 Delta virus low-dose (40 mg/kg) group, high-dose (80 mg/kg) group; and a positive control group (Remdesivir 50 mg/kg). Before nasal dripping infection, the drug was administered by gavage 5 days in advance, once a day. After 5 days of continuous gavage, nasal dripping infection was performed, and mice in each COVID-19 virus infection group were infected with COVID-19 Delta virus with 10′ PFU by nasal dripping, except for the normal group who were given PBS by nasal dripping.
After infection, the body weight change was recorded every day, the death of animals within 5 days of infection was recorded, and the mean survival days and mortality rate of 5 days were calculated.

MCP-1 = assay: RT-qPCR of MCP-1 in lung homogenate of mice infected with COVID-19 Delta virus; conditions: mRNA RT-qPCR, NC = 1.00
influenza virus FM1 = assay: Action links (Groups I-IV: prevention, treatment, direct inactivation), protection of cells against influenza virus; format: cell-based; conditions: for Protection rate (ER %), Group IV: drug and virus mixed and adsorbed for 2 h, then added with cells (direct inactivation); for Protection rate (ER %), Group III: drug solution and virus solution added at the same time (direct inactivation); for Protection rate (ER %), Group II: virus added first, drug added 1 h after adsorption (treatment); for Protection rate (ER %), Group I: virus solution added after 24 h of drug administration (prevention)
parainfluenza virus [7] = assay: Action links (Groups I-IV: prevention, treatment, direct inactivation), protection of cells against parainfluenza virus; format: cell-based; conditions: for Protection rate (ER %), Group IV: drug and virus mixed and adsorbed for 2 h, then added with cells (direct inactivation); for Protection rate (ER %), Group III: drug solution and virus solution added at the same time (direct inactivation); for Protection rate (ER %), Group II: virus added first, drug added 1 h after adsorption (treatment); for Protection rate (ER %), Group I: virus solution added after 24 h of drug administration (prevention)
COVID-19 virus = assay: In-vitro antiviral CPE test in Vero E6 cells, COVID-19 virus; format: cell-based; conditions: Vero E6 cells, 100 TCID50, CPE after 3-4 days; unit not given (drug concentrations 250-15.62 μg/mL); in µg/mL
[8] = high-dose group 80 mg/kg gavage 5 days
[9] = low-dose group 40 mg/kg gavage 5 days
[10] = prophylactic administration, High dose
[11] = prophylactic administration, Low dose

| SMILES | IL-2 expression level (IL-2; High-dose group (26.0 mg/kg)) | IL-2 expression level (IL-2; Low-dose group (13.0 mg/kg)) | Hemagglutination titer inhibition rate (%) (influenza virus [1]; 13.0 mg/kg) | Lung virus titer (x ± s, n = 8) (COVID-19 Delta virus [5]; high dose 80 mg/kg) | Lung virus titer (x ± s, n = 8) (COVID-19 Delta virus [5]; low dose 40 mg/kg) | Protection rate (ER %), Group IV (influenza virus FM1) [%] | Protection rate (ER %), Group III (influenza virus FM1) [%] | Protection rate (ER %), Group II (influenza virus FM1) [%] | Protection rate (ER %), Group I (influenza virus FM1) [%] | Expression level of IL-1β in lung homogenate (x ± s) (IL-1β; [8]) | Expression level of IL-1β in lung homogenate (x ± s) (IL-1β; [9]) | TNF-a expression level (TNF-α; High-dose group (26.0 mg/kg)) | TNF-a expression level (TNF-α; Low-dose group (13.0 mg/kg)) | Death rate (COVID-19 Delta virus [6]; [10]) [%] | Survival rate (COVID-19 Delta virus [6]; [10]) [%] | Mean survival (COVID-19 Delta virus [6]; [10]) [days] | Death rate (COVID-19 Delta virus [6]; [11]) [%] | Survival rate (COVID-19 Delta virus [6]; [11]) [%] | Mean survival (COVID-19 Delta virus [6]; [11]) [days] | Hemagglutination titer inhibition rate (%) (parainfluenza virus [4]; 13.0 mg/kg) | further results |
| --- | --- | --- | --- | --- | --- | --- | --- | --- | --- | --- | --- | --- | --- | --- | --- | --- | --- | --- | --- | --- | --- |
| CCOC(=O)C1=C[C@@H](OC(CC)CC)[C@H](NC(C)=O)[C@@H](N)C1 [Oseltamivir phosphate, reference compound] |  |  |  |  |  |  |  |  |  |  |  |  |  |  |  |  |  |  |  |  | IL-2 expression level (IL-2; 19.5 mg/kg): 279.83 ± 23.26; Hemagglutination titer inhibition rate (%) (influenza virus [1]; 19.5 mg/kg): 37.78%; Hemagglutination titer (influenza virus [1]; 19.5 mg/kg, Day 5, titer (InX)): 22.07 ± 0.235; Effective rate, ER %, Parainfluenza Virus (parainfluenza virus [2]): 91.16%; Effective rate, ER %, Influenza Virus (influenza virus [3]; Vero cells, 100TCID50, drug at experimental concentration of Table 3-2 (about maximum non-toxic), 72 h, MTT): 81.92%; Maximum non-toxic concentration (TC0) (Vero cells): 0.29 g/L; Median toxic concentration (TC50) (Vero cells): 831 µg/mL; TNF-a expression level (TNF-α; 19.5 mg/kg): 658.91 ± 38.33; Hemagglutination titer inhibition rate (%) (parainfluenza virus [4]; 19.5 mg/kg): 32.93%; Hemagglutination titer (parainfluenza virus [4]; 19.5 mg/kg): 23.22 ± 0.648 |
| CCC(CC)COC(=O)[C@H](C)N[P@](=O)(OC[C@H]1O[C@@](C#N)(c2ccc3c(N)ncnn23)[C@H](O)[C@@H]1O)Oc1ccccc1 [Remdesivir, reference compound] |  |  |  |  |  |  |  |  |  |  |  |  |  |  |  |  |  |  |  |  | Lung virus titer (x ± s, n = 8) (COVID-19 Delta virus [5]; 50 mg/kg): 3.69 ± 1.06; Expression level of IL-1β in lung homogenate (x ± s) (IL-1β; 50 mg/kg, 5 days): 9.52 ± 6.37; Death rate (COVID-19 Delta virus [6]; 50 mg/kg): 75.00%; Survival rate (COVID-19 Delta virus [6]; 50 mg/kg): 25.00%; Mean survival (COVID-19 Delta virus [6]; 50 mg/kg): 3.88 ± 0.83 days; Death protection rate (COVID-19 Delta virus [6]; prophylactic administration, 50 mg/kg, within 5 days of infection): 75%; Expression level of MCP-1 in lung homogenate (x ± s) (MCP-1; 50 mg/kg, 5 days): 6.88 ± 5.73 |
| COc1cc(O)cc(C2OCC3C(c4ccc(OC5OC(CO)C(O)C(O)C5O)c(OC)c4)OCC23)c1 [Serial No. 1, (7,8,7′,8′)-7,7′-bisepoxy-5′-hydroxy-3,3′hydroxy-bismethoxylignan, 4-O-β-D-glucoside] | 259.04 ± 39.98 | 288.64 ± 25.05 | 43.39 | 2.93 ± 0.34 | 3.36 ± 0.28 | 100.76 | 100.52 | 75.77 | 75.49 | 4.80 ± 18.82 | 9.13 ± 8.66 | 608.95 ± 34.92 | 673.65 ± 26.44 | 12.50 | 87.50 | 4.88 ± 0.35 | 75.00 | 25.00 | 4.25 ± 0.46 | 37.46 | Hemagglutination titer (influenza virus [1]; 13.0 mg/kg, Day 5, titer (InX)): 20.08 ± 0.381; Hemagglutination titer (parainfluenza virus [4]; 13.0 mg/kg): 21.65 ± 0.238; Expression level of MCP-1 in lung homogenate (x ± s) (MCP-1; [8]): 3.26 ± 9.77; Expression level of MCP-1 in lung homogenate (x ± s) (MCP-1; [9]): 6.13 ± 15.12; Protection rate (ER %), Group IV (parainfluenza virus [7]): 100.82%; Protection rate (ER %), Group III (parainfluenza virus [7]): 100.49%; Protection rate (ER %), Group II (parainfluenza virus [7]): 85.95%; Protection rate (ER %), Group I (parainfluenza virus [7]): 84.39% |
| COc1ccc([C@H]2OC[C@H]3[C@@H]2CO[C@H]3c2ccc(O[C@@H]3O[C@H](CO)[C@@H](O)[C@H](O)[C@H]3O)c(OC)c2)cc1OC [Serial No. 2, phillyrin] | 262.88 ± 35.66 | 293.00 ± 21.88 | 43.30 | 2.95 ± 0.57 | 3.70 ± 0.25 | 100.86 | 100.68 | 75.58 | 75.86 | 5.11 ± 14.34 | 10.58 ± 10.22 | 618.38 ± 28.86 | 683.47 ± 37.37 | 12.50 | 87.50 | 4.88 ± 0.35 | 75.00 | 25.00 | 3.88 ± 0.83 | 37.52 | Hemagglutination titer (influenza virus [1]; 13.0 mg/kg, Day 5, […]): 20.11 ± 0.351; Hemagglutination titer (parainfluenza virus [4]; 13.0 mg/kg): 21.63 ± 0.330; Expression level of MCP-1 in lung homogenate (x ± s) (MCP-1; [8]): 3.66 ± 11.30; Expression level of MCP-1 in lung homogenate (x ± s) (MCP-1; [9]): 7.42 ± 12.66; Protection rate (ER %), Group IV (parainfluenza virus [7]): 100.93%; Protection rate (ER %), Group III (parainfluenza virus [7]): 100.67%; Protection rate (ER %), Group II (parainfluenza virus [7]): 85.94%; Protection rate (ER %), Group I (parainfluenza virus [7]): 84.48% |
| COc1cc([C@H]2OC[C@H]3[C@@H]2CO[C@H]3c2ccc(OC)c(OC)c2)ccc1O [Serial No. 3, phillygenin] | 275.59 ± 31.88 | 306.70 ± 34.88 | 42.20 | 2.98 ± 0.73 | 3.47 ± 0.98 | 100.38 | 100.86 | 75.51 | 75.46 | 4.93 ± 16.18 | 9.98 ± 11.16 | 648.40 ± 27.19 | 713.48 ± 39.74 | 12.50 | 87.50 | 4.88 ± 0.35 | 75.00 | 25.00 | 4.13 ± 0.64 | 36.28 | Hemagglutination titer (influenza virus [1]; 13.0 mg/kg, Day 5, […]): 20.50 ± 0.489; Hemagglutination titer (parainfluenza virus [4]; 13.0 mg/kg): 22.06 ± 0.310; Expression level of MCP-1 in lung homogenate (x ± s) (MCP-1; [8]): 3.67 ± 10.22; Expression level of MCP-1 in lung homogenate (x ± s) (MCP-1; [9]): 6.71 ± 4.38; Protection rate (ER %), Group IV (parainfluenza virus [7]): 100.18%; Protection rate (ER %), Group III (parainfluenza virus [7]): 100.46%; Protection rate (ER %), Group II (parainfluenza virus [7]): 85.11%; Protection rate (ER %), Group I (parainfluenza virus [7]): 84.15% |
| COc1cc(O)cc(C2OCC3C(c4ccc(OC5OC(CO)C(O)C(O)C5O)c(OC)c4)OCC23)c1 (stereo not shown) [compound 1] |  |  |  |  |  |  |  |  |  |  |  |  |  |  |  |  |  |  |  |  | Effective rate, ER %, Parainfluenza Virus (parainfluenza virus [2]): 99.92%; Effective rate, ER %, Influenza Virus (influenza virus [3]): 89.02%; COVID-19 virus IC50 (COVID-19 virus): 62.1; Maximum non-toxic concentration (TC0) (Vero cells): 0.0067 g/L; Median toxic concentration (TC50) (Vero cells): 560 µg/mL |
